# Measured values reported in patent US9707267B2, “Beta-turn peptidomimetic cyclic compounds for treating dry eye” (Mimetogen Pharmaceuticals, Inc., priority 2008, dated 2017).
# “And” between values parts separate entries of the source, which are not always exact repeats. Identical values can stand only once.
# What was measured:
# [1] = tested on: cultured rat conjunctival goblet cells; experiment: Goblet cell glycoconjugate secretion, ELLA with UEA-1 (Example 2); type: cell-based; conditions: 2 hours; for Glycoconjugate Secretion, Mean ± sem: mean of rats; for Glycoconjugate Secretion, Mean ± SD: mean of rats/plates
# Experimental: The culturing of conjunctival goblet cells from explant cultures was as previously described in Shatos, M. et al., “Isolation, Characterization, and Propagation of Rat Conjunctival Goblet Cells In Vitro,” IOVS 42:1455-1464 (2001), the entire content of which is incorporated herein by reference. The tissue was finely minced and individual pieces were anchored onto scored 6-well cultures dishes in 0.5 mL of complete RPMI-1640 (supplemented with 10% FBS, 2 mM glutamine and 100 μg/mL penicillin-streptomycin) and incubated at 37° C. in a humidified 5% CO2-atmosphere. Explant cultures were refed every 2 days. Within a few days, goblet cells migrated from the pieces and began to proliferate. After approximately one week, the tissue plugs were removed and the goblet cells were allowed to grow to confluence. Cells were passaged once by trypsinization of adherent cells with 0.05% trypsin-0.53 mM EDTA (pH 7.4), and plated in 8-well Laboratory Tek chamber slides (histochemistry) or in 96 well (proliferation), 24 well (secretion), or 6 well (western blots) culture plates with complete RPMI-1640 media.
# To measure cell secretion, goblet cells were grown to confluence and then serum depleted for 2 hours prior to stimulation. Cells were incubated with compound D3 at 2, 10, and 50 μM, NGF at 0.1, 1 and 10 nM, and PMA at 0.1, 1, and 10 nM in serum-free RPMI for 2 hours. Goblet cell secretion was measured using an enzyme-linked lectin assay (ELLA). Briefly, an aliquot of the cell culture supernatant was transferred to a 96-well polystyrene microtiter plate in triplicate (Corning Life Sciences #2592, Fisher Scientific, Nepean, Ont). A dilution series of bovine submaxillary mucin (BSM) (Sigma, St. Louis, Mo.) was included on each plate as the standard (standard curve data and data showing that detection of BSM is linear between 0.003 and 0.1 μg not shown). The plates were coated by evaporation at 37° C. overnight. After, the plates were washed three times with wash buffer [PBS containing 0.3% BSA, 0.05% Tween-20] then blocked for nonspecific binding with PBS containing 3% BSA and 0.05% Tween-20 at 37° C. for 1 hour. The wells were rinsed three times in wash buffer, and then incubated in 2 μg/mL biotinylated UEA-1 diluted in wash buffer (Vector Labs, Burlingame, Calif.) at 37° C. for 1 hour. The wells were rinsed three times in wash buffer, and then incubated in 1 μg/mL HRP-conjugated neutravidin diluted in wash buffer (Pierce, Rockford, Ill.) at 37° C. for 1 hour. After the wells were rinsed three times in wash buffer, the color development was performed with TMB (Promega, Madison, Wis.) and stopped with 0.5N Sulfuric acid. The absorbance was read at 450 nm on a Benchmark Plus (Biorad). The goblet cells remaining in the culture wells were either scraped in RIPA buffer [1% TritonX-100, 20 mM Tris-HCl pH 7.5, 150 mM NaCl, 1.5 mM MgCl2, 1% Na deoxycholate, 1 mM EGTA, 1 mM EDTA, 0.1% SDS, 10% glycerol, 1 mM Na vanadate, 10 mM Na fluoride, 10 mM Na pyrophosphate, complete mini EDTA-free protease inhibitors (Roche Applied Science, Indianapolis, Ind.)] or 1M Tris-buffer (pH 7.5), collected and sonicated. The amount of protein in the cell homogenate was analyzed using the Bradford protein assay kit using a dilution series of bovine serum albumin (BSA) as the standard (BioRad, Montreal, PQ). Glycoconjugate secretion was normalized to total protein in the homogenate. Data was then expressed as fold increase above basal. […]
# [2] = tested on: Scopolamine Induced Rat Dry Eye Model; experiment: Scopolamine induced rat dry eye model, Schirmer test (Example 5); type: in vivo; conditions: ± SD
smiles,measurement,setting,value
NCCCC[C@@H]1NC(=O)[C@H](CCC(=O)O)NC(=O)c2cc([N+](=O)[O-])ccc2OCCC(C(=O)NCC(=O)O)NC1=O (stereo partly drawn) [Compound D3],Glycoconjugate Secretion,"[1]; 2 μM, Rat 2",1.25 Fold increase above basal
same,Glycoconjugate Secretion,"[1]; 2 μM, Rat 2 Plate 1",2.5 μg glycoconjugate/mg total protein
same,Glycoconjugate Secretion,"[1]; 2 μM, Rat 3",2.14 Fold increase above basal
same,Glycoconjugate Secretion,"[1]; 2 μM, Rat 3 Plate 1",10.5 μg glycoconjugate/mg total protein
same,Glycoconjugate Secretion,"[1]; 2 μM, Rat 4",1.09 Fold increase above basal
same,Glycoconjugate Secretion,"[1]; 2 μM, Rat 4 Plate 1",9.3 μg glycoconjugate/mg total protein
same,"Glycoconjugate Secretion, Mean ± sem",[1]; 2 μM,1.49±0.33 Fold increase above basal
same,"Glycoconjugate Secretion, Mean ± SD",[1]; 2 μM,7.4 ± 4.3 μg glycoconjugate/mg total protein
same,"Glycoconjugate Secretion, Mean ± sem","[1]; 2 μM, listed as MIM-D3",1.49 ± 0.33 Fold increase above basal
same,Glycoconjugate Secretion,"[1]; 10 μM, Rat 2",1.25 Fold increase above basal
same,Glycoconjugate Secretion,"[1]; 10 μM, Rat 2 Plate 1",2.5 μg glycoconjugate/mg total protein
same,Glycoconjugate Secretion,"[1]; 10 μM, Rat 3",1.04 Fold increase above basal
same,Glycoconjugate Secretion,"[1]; 10 μM, Rat 3 Plate 1",5.1 μg glycoconjugate/mg total protein
same,Glycoconjugate Secretion,"[1]; 10 μM, Rat 4",1.35 Fold increase above basal
same,Glycoconjugate Secretion,"[1]; 10 μM, Rat 4 Plate 1",11.6 μg glycoconjugate/mg total protein
same,"Glycoconjugate Secretion, Mean ± sem",[1]; 10 μM,1.21 ± 0.09 Fold increase above basal
same,"Glycoconjugate Secretion, Mean ± SD",[1]; 10 μM,6.4 ± 4.7 μg glycoconjugate/mg total protein
same,Glycoconjugate Secretion,"[1]; 50 μM, Rat 1",1.38 Fold increase above basal
same,Glycoconjugate Secretion,"[1]; 50 μM, Rat 1 Plate 2",5.4 μg glycoconjugate/mg total protein
same,Glycoconjugate Secretion,"[1]; 50 μM, Rat 2",1.65 Fold increase above basal
same,Glycoconjugate Secretion,"[1]; 50 μM, Rat 2 Plate 1",3.3 μg glycoconjugate/mg total protein
same,Glycoconjugate Secretion,"[1]; 50 μM, Rat 3",1.16 Fold increase above basal
same,Glycoconjugate Secretion,"[1]; 50 μM, Rat 3 Plate 1",5.7 μg glycoconjugate/mg total protein
same,Glycoconjugate Secretion,"[1]; 50 μM, Rat 4",1.11 Fold increase above basal
same,Glycoconjugate Secretion,"[1]; 50 μM, Rat 4 Plate 1",9.5 μg glycoconjugate/mg total protein
same,"Glycoconjugate Secretion, Mean ± sem",[1]; 50 μM,1.33 ± 0.12 Fold increase above basal
same,"Glycoconjugate Secretion, Mean ± SD",[1]; 50 μM,6.0 ± 2.6 μg glycoconjugate/mg total protein
same,Schirmer's Test,"[2]; 0.4% group, Day 2, before treatment start (day 5)",9.6 ± 3.0 mm
same,Schirmer's Test,"[2]; 0.4% group, Day −1, presurgical, before treatment start (day 5)",11.9 ± 4.4 mm and 11.9 ± 4.2 mm
same,Schirmer's Test,"[2]; 0.4% topical 1× daily Days 5-21, Day 5 (test before first instillation)",7.9 ± 3.2 mm
same,Schirmer's Test,"[2]; 0.4% topical 1× daily Days 5-21, Day 7",7.9 ± 1.6 mm
same,Schirmer's Test,"[2]; 0.4% topical 1× daily Days 5-21, Day 14",8.6 ± 3.0 mm
same,Schirmer's Test,"[2]; 0.4% topical 1× daily Days 5-21, Day 20",7.2 ± 1.8 mm
same,Schirmer's Test,"[2]; 0.4% topical 1× daily Days 5-21, Day 29 (after treatment stopped)",9.4 ± 2.0 mm
same,Schirmer's Test,"[2]; 1.0% group, Day 2, before treatment start (day 5)",9.8 ± 4.0 mm and 9.8 ± 3.8 mm
same,Schirmer's Test,"[2]; 1.0% group, Day −1, presurgical, before treatment start (day 5)",11.3 ± 4.5 mm and 11.3 ± 3.0 mm
same,Schirmer's Test,"[2]; 1.0% topical 1× daily Days 5-21, Day 5 (test before first instillation)",7.9 ± 2.3 mm
same,Schirmer's Test,"[2]; 1.0% topical 1× daily Days 5-21, Day 7",9.5 ± 4.2 mm
same,Schirmer's Test,"[2]; 1.0% topical 1× daily Days 5-21, Day 14",7.3 ± 2.3 mm
same,Schirmer's Test,"[2]; 1.0% topical 1× daily Days 5-21, Day 29 (after treatment stopped)",9.0 ± 2.9 mm
same,Schirmer's Test,"[2]; 2.5% group, Day 2, before treatment start (day 5)",9.8 ± 2.4 mm
same,Schirmer's Test,"[2]; 2.5% group, Day −1, presurgical, before treatment start (day 5)",11.5 ± 2.2 mm and 11.5 ± 1.8 mm
same,Schirmer's Test,"[2]; 2.5% topical 1× daily Days 5-21, Day 5 (test before first instillation)",9.6 ± 1.8 mm
same,Schirmer's Test,"[2]; 2.5% topical 1× daily Days 5-21, Day 20",9.1 ± 2.3 mm
same,Schirmer's Test,"[2]; 2.5% topical 1× daily Days 5-21, Day 29 (after treatment stopped)",7.7 ± 1.6 mm
